Reference: publication PMC12491715 (Acta Pharmaceutica Sinica. B, 2025)

Experiments:
[1] = target: hAChE (Homo sapiens, UniProt P22303); assay: ChE IC50 determination, method of Ellman, hAChE; format: biochemical
Method: The inhibitory potencies of the compounds against the ChEs were determined using the method of Ellman following the procedure described previously. Briefly, compound stock solutions in DMSO were incubated with Ellman’s reagent and ChEs (final concentrations: 370 μmol/L Ellman’s reagent, approximately 1 nmol/L or 50 pmol/L hBChE or hAChE, respectively) in 0.1 mol/L sodium phosphate pH 8.0 for 5 min at 20 °C. For time-dependency measurements, the pre-incubation time was varied (1, 5, 15, 30 or 60 min). The reactions were started by the addition of the substrate (final concentration, 500 μmol/L butyrylthiocholine iodide or acetylthiocholine iodide for hBChE and hAChE, respectively). The final content of DMSO was always 1%. The increase in absorbance at 412 nm was monitored for 2 min using a 96-well microplate reader (Synergy HT, BioTek Instruments, VT, USA). The initial velocities in the presence (vi) and absence (v0) of the test compounds were calculated. The inhibitory potencies were expressed as the residual activities, according to Eq. (1):(1) RA = vi / v0
For IC50 determinations, at least seven different concentrations for each compound were used. The IC50 values were obtained by plotting the residual ChE activities against the applied inhibitor concentrations, with the experimental data fitted to a four-parameter logistic function (GraphPad Prism 9.4). Tacrine and donepezil were used as positive controls.

[2] = system: ICR mice icv-injected with Aβ1–42; assay: Novel object recognition, mice model with icv-injection of Aβ1–42; format: in vivo; conditions: ip, once a day, vs rivastigmine 4
Method: Mice model with icv-injection of Aβ1–42 The experiments were performed using ICR male mice (8–10 weeks old, weight 18–20 g), which were purchased from Shanghai Bikai Animal Breeding Factory (Shanghai, China). Animals were housed in cages (6 mice per cage) at a constant temperature of 25±2 °C, humidity of 55%±10% and a light/dark (12:12) cycle. The mice had unlimited access to food and water prior to the experiment. Specified conditions for the maintenance of mice were ensured throughout the experiments, including tree bedding (Yizheng Anlimao Biotechnology Co., Ltd., China) and lab feed (Zimao, China). For behavioural tests, mice were selected randomly, each group consisted of 6 mice. The experiments were performed between 9 am and 3 pm.
According to the literature procedure, recombinant human hexafluoroisopropanol-pretreated Aβ1–42 from Merck Millipore (Darmstadt, Germany) was dissolved in 1% DMSO, diluted with saline to the final concentration of 2 mg/mL, and incubated for 72 h to form oligomers. […]
Novel object recognition experiment was performed in a maze with dimensions 50 cm×50 cm×40 cm, with black cuboid (4 cm×4 cm×5 cm) as the old object, and white cylinder (2r = 5 cm, h = 5 cm) as the new object. […] Time spent exploring new and old objects was recorded using ANY-maze software and processed using GraphPad Prism 5.

[3] = pKa from solubility and partition measurements; format: physicochemical; conditions: break in the logP vs. pH and log(solubility) vs. pH plot
Method: The supernatants were diluted 1:5 with 50% MeCN or used directly for UPLC analysis (calibration curve was constructed from 0.5–100 mg/L standard solutions of compound 8).
Shake-flask partition coefficient measurement was done according to OECD guideline 107 (27. 7. 1995) and EPA OPPTS 830.7550 guideline (1996). Briefly, PBS pH 7.4 buffer (50 mL) and n-octanol (50 mL) were thoroughly shaken to ensure saturation of both phases and left to separate. Compound 8 stock solution in n-octanol (approx. 1000 mg/L) was accurately pipetted into Eppendorf tubes (500, 1000, 500 μL, respectively) and n-octanol-saturated PBS pH 7.4 buffer (500, 500, 1000 μL, respectively) was added. Each solvent ratio was done in duplicates. The Eppendorf tubes were thoroughly shaken to ensure partition and centrifuged (5000 × g, 10 min) to separate the phases. Water phase (carefully sampled using needle and syringe) was transferred to HPLC vials directly, whereas n-octanol phases were diluted with MeCN (10–50×) prior to analysis. Additional dilutions were carried out, if needed.

hAChE, sequence (P22303 32-614): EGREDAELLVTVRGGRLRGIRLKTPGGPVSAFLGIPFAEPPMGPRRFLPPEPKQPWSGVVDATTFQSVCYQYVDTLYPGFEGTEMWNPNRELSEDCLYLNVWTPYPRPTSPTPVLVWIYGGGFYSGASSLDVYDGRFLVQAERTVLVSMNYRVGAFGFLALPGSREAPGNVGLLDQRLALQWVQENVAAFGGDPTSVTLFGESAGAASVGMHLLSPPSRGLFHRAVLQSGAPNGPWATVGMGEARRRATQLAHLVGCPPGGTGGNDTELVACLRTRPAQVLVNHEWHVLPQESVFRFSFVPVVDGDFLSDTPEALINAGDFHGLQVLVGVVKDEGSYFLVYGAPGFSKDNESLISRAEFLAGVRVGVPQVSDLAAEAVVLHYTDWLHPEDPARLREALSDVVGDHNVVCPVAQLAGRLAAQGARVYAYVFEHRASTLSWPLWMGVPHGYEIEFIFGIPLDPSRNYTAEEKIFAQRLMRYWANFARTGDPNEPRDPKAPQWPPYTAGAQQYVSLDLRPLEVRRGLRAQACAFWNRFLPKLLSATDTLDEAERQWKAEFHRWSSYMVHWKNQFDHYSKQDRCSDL

## CCN(CC)C(=O)n1cnc(C2(CC)Cc3ccccc3C2)c1 [Compound 8, N,N-Diethyl-4-(2-ethylindan-2-yl)-1H-imidazole-1-carboxamide]
[1]; pre-incubation time varied
  hAChE time-dependency observed: Yes/No: No
[1]; residual activity at 100 μmol/L, after 5 min preincubation, read-out: hAChE RA±SD (residual activity)
  remaining activity at 100 µM: 62%
[2]
  recognition memory in novel object recognition task: restored recognition memory comparable or better than 4
[3]
  pKa: 4.1
